# From BindingDB's records for patent US10285988 (Curegenix, 2019)
# Target: Protein Wnt-3a (Human, UniProt P56704)
# Experiment: WNT Pathway Reporter Gene Assay
# Description: Materials and Methods: NIH3T3 mouse fibroblast cells (American Type Culture Collection, Manassas, Va.) were transfected with a plasmid containing a luciferase gene driven by 5 copies of TCF elements. Stale cells selected with 1 μg/mL of Zeocin (Gibco/Invitrogen, Carlsbad, Calif.) are cultured in Dulbecco's modified Eagle's medium (Invitrogen, Carlsbad, Calif.) supplemented with 10% FBS (Invitrogen), 50 unit/mL penicillin and 50 μg/mL of streptomycin (Invitrogen) at 37° C. with 5% CO2 in air atmosphere. […] After 16 hours, the firefly luciferase activities are measured with the Steady-Glo Luciferase Assay System (Promega). The cells were treated with different concentrations of compounds of this invention during the co-culture. […] To normalize for cell quantity and viability, CellTiter Glo assay is next performed in a duplicate plate.
# Chain of Protein Wnt-3a (P56704 whole entry): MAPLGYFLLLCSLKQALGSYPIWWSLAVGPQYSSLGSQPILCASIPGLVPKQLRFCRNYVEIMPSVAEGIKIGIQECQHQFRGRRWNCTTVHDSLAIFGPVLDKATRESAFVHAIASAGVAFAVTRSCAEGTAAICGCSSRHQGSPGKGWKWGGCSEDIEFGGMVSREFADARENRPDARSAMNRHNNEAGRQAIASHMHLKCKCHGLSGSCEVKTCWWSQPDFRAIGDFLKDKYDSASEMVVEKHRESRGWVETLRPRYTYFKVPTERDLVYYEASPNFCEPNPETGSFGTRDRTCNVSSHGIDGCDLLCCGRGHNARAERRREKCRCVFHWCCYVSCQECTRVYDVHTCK
row,SMILES,IC50 [nM]
1,"Cc1cc(-c2ccc(CNc3nccc4cc(-c5ccnc(C)c5)ncc34)cc2)ccn1 [US10285988, Compound 1]",< 3
2,"Cc1cc(-c2cc3ccnc(NCc4ccc(-c5ccnc(C)c5)c(C)c4)c3cn2)ccn1 [US10285988, Compound 2]",< 3
3,"Cc1cc(-c2cc3ccnc(NCc4ccc(-c5ccnc(F)c5)c(F)c4)c3cn2)ccn1 [US10285988, Compound 28]",< 3
4,"Cc1cc(-c2ccc(CNc3nccc4cc(-c5cnccn5)ncc34)cc2)ccn1 [US10285988, Compound 35]",< 3
5,"Cc1cc(-c2ncc(CNc3nccc4cc(-c5cnccn5)ccc34)cc2C)ccn1 [US10285988, Compound 70]",< 3
